Results from US9963464B2, “Macrocyclic compounds” (Bayer Pharma Aktiengesellschaft, priority 2014, dated 2018).
pIC50: −log10 of the molar value. Like-named read-outs stand apart in the source and are kept apart here.

Columns and labels:
[1] = tested on: Caco-2 cells; assay: Proliferation assay Caco-2; type: cell-based, human; conditions: 4 days, crystal violet, read-out: Inhibition of Caco-2 cell proliferation IC50
Protocol: (§1) Cultivated tumour cells (HeLa, human cervical tumour cells, ATCC CCL-2; NCI-H460, human non-small cell lung carcinoma cells, ATCC HTB-177; A2780, human ovarian carcinoma cells, ECACC #93112519; DU 145, hormone-independent human prostate carcinoma cells, ATCC HTB-81; HeLa-MaTu-ADR, multidrug-resistant human cervical carcinoma cells, EPO-GmbH Berlin; Caco-2, human colorectal carcinoma cells, ATCC HTB-37; B16F10, mouse melanoma cells, ATCC CRL-6475) were plated at a density of 5,000 cells/well (DU145, HeLa-MaTu-ADR), 3,000 cells/well (NCI-H460, HeLa), 2,500 cells/well (A2780), 1,500 cells/well (Caco-2), or 1,000 cells/well (B16F10) in a 96-well multititer plate in 200 μL of their respective growth medium supplemented 10% fetal calf serum. After 24 hours, the cells of one plate (zero-point plate) were stained with crystal violet (see below), while the medium of the other plates was replaced by fresh culture medium (200 μl), to which the test substances were added in various concentrations (0 μM, as well as in the range of 0.001-10 μM). The cells were incubated for 4 days in the presence of test substances. Cell proliferation was determined by staining the cells with crystal violet: the cells were fixed by adding 20 μl/measuring point of an 11% glutaric aldehyde solution for 15 minutes at room temperature. After three washing cycles of the fixed cells with water, the plates were dried at room temperature. The cells were stained by adding 100 μl/measuring point of a 0.1% crystal violet solution (pH 3.0). After three washing cycles of the stained cells with water, the plates were dried at room temperature. The dye was dissolved by adding 100 μl/measuring point of a 10% acetic acid solution. The extinction was determined by photometry at a wavelength of 595 nm. The change of cell number, in percent, was calculated by normalization of the measured values to the extinction values of the zero-point plate (=0%) and the extinction of the untreated (0 μm) cells (=100%). The IC50 values (inhibitory concentration at 50% of maximal effect) were determined by means of a 4 parameter fit. Non-adherent MOLM-13 human acute myeloid leukemia cells (DSMZ ACC 554) were seeded at a density of 5,000 cells/well in a 96-well multititer plate in 100 μL of growth medium supplemented 10% fetal calf serum. After 24 hours, cell viability of one plate (zero-point plate) was determined with the Cell Titre-Glo Luminescent Cell Viability Assay (Promega), while 50 μL of test compound containing medium was added to the wells of the other plates (final concentrations in the range of 0.001-1 μM and DMSO controls). Cell viability was assessed after 72-hour exposure with the Cell Titre-Glo Luminescent Cell Viability Assay (Promega). IC50 values (inhibitory concentration at 50% of maximal effect) were determined by means of a 4 parameter fit on measurement data which were normalized to vehicle (DMSO) treated cells (=100%) and measurement readings taken immediately before compound exposure (=0%).

[2] = target: T1, CDK9/CycT1 (Homo sapiens, UniProt P50750); assay: CDK9/CycT1 high ATP kinase assay (TR-FRET, Method 1b); type: biochemical; conditions: for pIC50: Method 1b, 2 mM ATP; for Selectivity high ATP CDK9 over high ATP CDK2: IC50 (high ATP CDK2)/IC50 (high ATP CDK9): Methods 1b and 2b, minimal values where CDK9 IC50 is at the assay limit
T1 construct: Recombinant full-length His-tagged human CDK9 and CycT1; His; purchased Invitrogen PV4131; host or cells: insect cells
Protocol: 1b. CDK9/CycT1 High ATP Kinase Assay
CDK9/CycT1-inhibitory activity of compounds of the present invention at a high ATP concentration after preincubation of enzyme and test compounds was quantified employing the CDK9/CycT1 TR-FRET assay as described in the following paragraphs.
Recombinant full-length His-tagged human CDK9 and CycT1, expressed in insect cells and purified by Ni-NTA affinity chromatography, were purchase from Invitrogen (Cat. No PV4131). As substrate for the kinase reaction biotinylated peptide biotin-Ttds-YISPLKSPYKISEG (C-terminus in amid form) was used which can be purchased e.g. from the company JERINI peptide technologies (Berlin, Germany). For the assay 50 nl of a 100 fold concentrated solution of the test compound in DMSO was pipetted into a black low volume 384 well microtiter plate (Greiner Bio-One, Frickenhausen, Germany), 2 μl of a solution of CDK9/CycT1 in aqueous assay buffer [50 mM Tris/HCl pH 8.0, 10 mM MgCl2, 1.0 mM dithiothreitol, 0.1 mM sodium ortho-vanadate, 0.01% (v/v) Nonidet-P40 (Sigma)] were added and the mixture was incubated for 15 min at 22° C. to allow pre-binding of the test compounds to the enzyme before the start of the kinase reaction. […] The concentration of CDK9/CycT1 was adjusted depending of the activity of the enzyme lot and was chosen appropriate to have the assay in the linear range, typical concentrations were in the range of 0.5 μg/mL. The reaction was stopped by the addition of 5 μl of a solution of TR-FRET detection reagents (0.2 μM streptavidine-XL665 [Cisbio Bioassays, Codolet, France] and 1 nM anti-RB(pSer807/pSer811)-antibody from BD Pharmingen [#558389] and 1.2 nM LANCE EU-W1024 labeled anti-mouse IgG antibody [Perkin-Elmer, product no. AD0077]) in an aqueous EDTA-solution (100 mM EDTA, 0.2% (w/v) bovine serum albumin in 100 mM HEPES pH 7.5).
The resulting mixture was incubated 1 h at 22° C. to allow the formation of complex between the phosphorylated biotinylated peptide and the detection reagents. Subsequently the amount of phosphorylated substrate was evaluated by measurement of the resonance energy transfer from the Eu-chelate to the streptavidine-XL. Therefore, the fluorescence emissions at 620 nm and 665 nm after excitation at 350 nm was measured in a HTRF reader, e.g. a Rubystar (BMG Labtechnologies, Offenburg, Germany) or a Viewlux (Perkin-Elmer). The ratio of the emissions at 665 nm and at […] was taken as the measure for the amount of phosphorylated substrate. The data were normalised (enzyme reaction without inhibitor=0% inhibition, all other assay components but no enzyme=100% inhibition).

[3] = tested on: NCI-H460 cells; assay: Proliferation assay NCI-H460; type: cell-based, human; conditions: 4 days, crystal violet, read-out: Inhibition of NCI-H460 cell proliferation IC50
Protocol: as §1

[4] = tested on: DU145 cells; assay: Proliferation assay DU145; type: cell-based, human; conditions: 4 days, crystal violet, read-out: Inhibition of DU145 cell proliferation IC50
Protocol: as §1

T1 sequence (P50750 whole entry): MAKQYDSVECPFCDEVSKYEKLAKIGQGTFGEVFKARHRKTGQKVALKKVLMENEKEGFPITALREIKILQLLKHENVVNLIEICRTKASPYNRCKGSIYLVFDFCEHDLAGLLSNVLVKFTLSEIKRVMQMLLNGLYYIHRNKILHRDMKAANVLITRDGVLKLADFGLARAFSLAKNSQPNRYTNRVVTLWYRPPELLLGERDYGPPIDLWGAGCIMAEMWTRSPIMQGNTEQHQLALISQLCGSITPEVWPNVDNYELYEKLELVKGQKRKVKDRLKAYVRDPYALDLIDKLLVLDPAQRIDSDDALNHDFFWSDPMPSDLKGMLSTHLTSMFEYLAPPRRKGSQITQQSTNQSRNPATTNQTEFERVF
T1 sequence (O60563 whole entry partner): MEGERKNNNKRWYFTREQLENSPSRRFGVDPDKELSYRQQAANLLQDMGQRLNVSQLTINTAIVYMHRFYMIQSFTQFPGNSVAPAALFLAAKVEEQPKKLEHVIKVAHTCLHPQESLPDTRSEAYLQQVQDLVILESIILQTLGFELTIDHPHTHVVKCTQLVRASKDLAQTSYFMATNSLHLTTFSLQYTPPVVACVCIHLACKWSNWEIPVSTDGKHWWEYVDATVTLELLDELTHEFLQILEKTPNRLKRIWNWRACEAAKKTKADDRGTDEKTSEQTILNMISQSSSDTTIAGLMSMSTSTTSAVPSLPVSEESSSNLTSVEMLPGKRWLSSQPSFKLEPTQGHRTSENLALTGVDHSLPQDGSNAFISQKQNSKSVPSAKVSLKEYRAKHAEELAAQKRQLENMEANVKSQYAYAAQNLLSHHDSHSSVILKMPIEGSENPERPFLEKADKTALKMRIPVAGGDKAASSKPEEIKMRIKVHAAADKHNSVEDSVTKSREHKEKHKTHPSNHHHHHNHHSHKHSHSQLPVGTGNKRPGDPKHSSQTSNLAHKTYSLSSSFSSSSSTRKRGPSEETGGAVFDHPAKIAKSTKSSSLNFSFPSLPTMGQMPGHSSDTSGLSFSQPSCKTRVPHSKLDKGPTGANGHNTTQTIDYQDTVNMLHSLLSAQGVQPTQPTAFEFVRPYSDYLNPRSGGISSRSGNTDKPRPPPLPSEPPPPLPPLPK

Molecule	pIC50 [2]	Selectivity high ATP CDK9 over high ATP CDK2: IC50 (high ATP CDK2)/IC50 (high ATP CDK9) [2]	pIC50 ([1]; Homo sapiens, Caco-2, 96 h)	pIC50 ([3]; Homo sapiens, NCI-H460, 96 h)	pIC50 ([4]; Homo sapiens, DU-145, 96 h)	pIC50 [1]	pIC50 [3]	pIC50 [4]
CSCc1cc2cc(c1)OCCCOc1cc(F)ccc1-c1nc(ncc1F)N2 [Example 2, 15,19-Difluoro-8-[(methylsulfanyl)methyl]-3,4-dihydro-2H,11H-12,16-(azeno)-10,6-(metheno)-1,5,11,13-benzodioxadiazacyclooctadecine]	8.37	149.6	7.52	7.25	6.95			
CSCc1cc2nc(c1)OCCCOc1cc(F)ccc1-c1cc(ncc1F)N2 [Example 3, 15,19-Difluoro-8-[(methylsulfanyl)methyl]-3,4-dihydro-2H,11H-10,6-(azeno)-12,16-(metheno)-1,5,11,13-benzodioxadiazacyclooctadecine]	8.34	28.2	> 7.52	7.41	7.06			
CSCc1cc2nc(c1)OCCCCOc1cc(F)ccc1-c1cc(ncc1F)N2 [Example 12, 16,20-Difluoro-9-[(methylsulfanyl)methyl]-2,3,4,5-tetrahydro-12H-11,7-(azeno)-13,17-(metheno)-1,6,12,14-benzodioxadiazacyclononadecine]	7.93	75.7	7.21	7.20	6.66			
({[15,19-difluoro-3,4-dihydro-2H,11H-10,6-(azeno)-12,16-(metheno)-1,5,11,13-benzodioxadiazacyclooctadecin-8-yl]methyl}sulfonyl)acetic acid [Example 27]	8.77	3.7				5.68	5.52	5.47

More lines, in order of rising pIC50 [2], values ahead:

pIC50 [2]	Selectivity high ATP CDK9 over high ATP CDK2: IC50 (high ATP CDK2)/IC50 (high ATP CDK9) [2]	pIC50 ([1]; Homo sapiens, Caco-2, 96 h)	pIC50 ([3]; Homo sapiens, NCI-H460, 96 h)	pIC50 ([4]; Homo sapiens, DU-145, 96 h)	Molecule	pIC50 [1]	pIC50 [3]	pIC50 [4]
8.47	13.0	6.48	6.40	6.41	NCCS(=O)(=O)Cc1cc2nc(c1)OCCCOc1cc(F)ccc1-c1cc(ncc1F)N2 [Example 26, 2-({[15,19-difluoro-3,4-dihydro-2H,11H-10,6-(azeno)-12,16-(metheno)-1,5,11,13-benzodioxadiazacyclooctadecin-8-yl]methyl}sulfonyl)ethanamine]			
8.59	19.5				CS(=N)(=O)Cc1cc2nc(c1)OCCCOc1cc(F)ccc1-c1cc(ncc1F)N2 (single isomer, unassigned; enantiomer 2) [Example 7, 15,19-Difluoro-8-[(S-methylsulfonimidoyl)methyl]-3,4-dihydro-2H,11H-10,6-(azeno)-12,16-(metheno)-1,5,11,13-benzodioxadiazacyclooctadecine; Enantiomer 2]	8.22	7.77	8.30
8.64	14.9	7.96	7.70	7.77	CS(=O)(=O)Cc1cc2nc(c1)OCCCOc1cc(F)ccc1-c1cc(ncc1F)N2 [Example 8, 15,19-difluoro-8-[(methylsulfonyl)methyl]-3,4-dihydro-2H,11H-10,6-(azeno)-12,16-(metheno)-1,5,11,13-benzodioxadiazacyclooctadecine]			
